Read-outs that look alike come from different tables or passages of the source.
Legend:
Assay type in all cases: in vivo, male rats of the Wister line
[1] = tested on: gastric mucous membrane; experiment: 150 mM hydrochloric acid/60% ethanol-induced gastric mucous membrane damage in rats (Experimental Example 3); settings: 150 mM HCl/60% ethanol; for Inhibition Ratio: vs control
Procedure: A suspension of a compound of formula I in a 0.5 % solution of CMC (carboxymethyl cellulose) was intraabdominally or orally administered in male rats of the Wister line (each group consisting of 10 rats) having a body weight of 180 to 200 g, which had been made to fast for 24 hours, and after 30 minutes, 1 ml of a liquid mixture of 150 mM hydrochloric acid and 60% ethanol was orally administered. After 1 hour from the administration of the liquid mixture of 150 mM hydrochloric acid and 60% ethanol, the abdominal operation was carried out, and the length of the damage on the gastric mucous membrane was measured as the mucous membrane damage coefficient and compared with the value obtained in the control group. Note, a 0.5% solution of CMC not containing a compound of formula I was intra-abdominally or orally administered in the control group. Data of the inhibition ratio calculated according to the following formula is shown in Tables 8 through 10: [formula] wherein A stands for the value obtained in the control group and B stands for the value obtained in the group in which the compound of formula I had been administered.

[2] = tested on: gastric mucous membrane; experiment: 0.6N hydrochloric acid-induced gastric mucous membrane damage in rats (Experimental Example 2); settings: for Inhibition Ratio: vs control
Procedure: A suspension of a compound of formula I in a […] of CMC (carboxymethyl cellulose) was intraabdominally administered in male rats of the Wister line (each group consisting of 10 rats) having a body weight of 180 to 200 g, which had been made to fast for 24 hours, and after 30 minutes, 1 ml of 0.6N hydrochloric acid was orally administered. After 1 hour from the administration of 0.6N hydrochloric acid, the abdominal operation was carried out, and the length of the damage on the gastric mucous membrane was measured as the mucous membrane damage coefficient and compared with the value obtained in the control group in the control group. Note, a 0.5% solution of CMC was intraabdominally administered. Data of the inhibition ratio calculated according to the following formula is shown in Tables 5 through 7: [formula] wherein A stands for the value obtained in the control group and B stands for the value obtained in the group in which the compound of formula I had been administered.

[3] = tested on: gastric mucous membrane; experiment: 100% ethanol-induced gastric mucous membrane damage in rats (Experimental Example 1)
Procedure: After 1 hour from the administration of 100% ethanol, the abdominal operation was carried out, and the length of the damaged region on the gastric mucous membrane was measured as the mucous membrane damage coefficient and compared with the value obtained in the control group. Note, a 0.5% solution of CMC not containing a compound of formula I was intraabdominally or orally administered in the control group.

[4] = Table 9, 30 mg/kg p.o., control 84.3
[5] = Table 10, 30 mg/kg i.p., control 110.7
[6] = Table 6, 100 mg/kg i.p., control 106.3
[7] = Rattus norvegicus, ip, 1 h, Table 3, 100 mg/kg i.p., vs control, read-out: Inhibition Ratio
[8] = Table 3, 100 mg/kg i.p., control 72.63
[9] = Table 8, 100 mg/kg p.o., control 119.0
[10] = Rattus norvegicus, ip, 1 h, Table 4, 100 mg/kg i.p., vs control, read-out: Inhibition Ratio
[11] = Table 4, 100 mg/kg i.p., control 72.3
[12] = Rattus norvegicus, po, 1 h, Table 2, 100 mg/kg p.o., vs control, read-out: Inhibition Ratio
[13] = Table 2, 100 mg/kg p.o., control 87.7

## O=C(CCc1ccc(O)c(O)c1)c1ccc(O)cc1O [Specific Example 27, 1-(2,4-dihydroxyphenyl)-3-(3,4-dihydroxyphenyl)-1-propanone]
[1]; [4]
  Mucous Membrane Damage Coefficient: 1.5 mm
[1]; Table 9, 30 mg/kg p.o.
  Inhibition Ratio: 98.2%
[1]; [5]
  Mucous Membrane Damage Coefficient: 60.0 mm
[1]; Table 10, 30 mg/kg i.p.
  Inhibition Ratio: 45.8%

## COc1ccc(CCC(=O)c2c(OC)cc(OC)cc2OCC(=O)O)cc1 [Specific Example 11, 1-(2-carboxymethoxy-4,6-dimethoxyphenyl)-3-(4-methoxyphenyl)-1-propanone]
[2]; [6]
  Mucous Membrane Damage Coefficient: 36.6 mm
[2]; Table 6, 100 mg/kg i.p.
  Inhibition Ratio: 65.6%
[3]; [7]
  inhibition in vivo at 100 mg/kg: 92.8%
[3]; [8]
  Mucous Membrane Damage Coefficient: 5.25 mm

## O=C(/C=C/c1ccc(O)c(O)c1)c1ccc(O)cc1O [Specific Example 19, 2',3,4,4'-tetrahydroxychalcone]
[1]; [4]
  Mucous Membrane Damage Coefficient: 10.5 mm
[1]; Table 9, 30 mg/kg p.o.
  Inhibition Ratio: 87.5%

## O=C(CCc1ccc(O)cc1)c1ccc(O)cc1O [Specific Example 22, 1-(2,4-dihydroxyphenyl)-3-(4-hydroxyphenyl)-1-propanone]
[1]; [9]
  Mucous Membrane Damage Coefficient: 1.4 mm
[1]; Table 8, 100 mg/kg p.o.
  Inhibition Ratio: 98.8%
[1]; [4]
  Mucous Membrane Damage Coefficient: 57.2 mm
[1]; Table 9, 30 mg/kg p.o.
  Inhibition Ratio: 32.1%
[1]; [5]
  Mucous Membrane Damage Coefficient: 54.2 mm
[1]; Table 10, 30 mg/kg i.p.
  Inhibition Ratio: 51.0%

## CC(C)CCc1cc(CCC(=O)c2c(O)cc(O)c(CCC(C)C)c2O)ccc1O [Specific Example 37, 1-(2,4,6-trihydroxy-3-isopentylphenyl)-3-(4-hydroxy-3-isopentylphenyl)-1-propanone]
[3]; [10]
  inhibition in vivo at 100 mg/kg: 31.1%
[3]; [11]
  Mucous Membrane Damage Coefficient: 49.8 mm

## O=C(CCc1ccc(O)c(O)c1)c1c(O)cc(O)cc1O [Specific Example 28, 1-(2,4,6-trihydroxyphenyl)-3-(3,4-dihydroxyphenyl)-1-propanone]
[1]; [9]
  Mucous Membrane Damage Coefficient: 15.7 mm
[1]; Table 8, 100 mg/kg p.o.
  Inhibition Ratio: 86.8%
[3]; [10]
  inhibition in vivo at 100 mg/kg: 90%
[3]; [11]
  Mucous Membrane Damage Coefficient: 7.2 mm

## COc1ccc(CCC(=O)c2ccc(OC)c(CCC(C)C)c2O)cc1 [Specific Example 33, 1-(2-hydroxy-4-methoxy-3-isopentylphenyl)-3-(4-methoxyphenyl)-1-propanone]
[3]; [10]
  inhibition in vivo at 100 mg/kg: 40.1%
[3]; [11]
  Mucous Membrane Damage Coefficient: 3.3 mm

## COc1ccc(/C=C/C(=O)c2c(OC)cc(OC)c(CCC(C)C)c2OCC(=O)O)cc1 [Specific Example 9, 2'-carboxymethoxy-4,4',6'-trimethoxy-3'-isopentylchalcone]
[2]; [6]
  Mucous Membrane Damage Coefficient: 39.6 mm
[2]; Table 6, 100 mg/kg i.p.
  Inhibition Ratio: 62.3%
[3]; [7]
  inhibition in vivo at 100 mg/kg: 93.1%
[3]; [8]
  Mucous Membrane Damage Coefficient: 5.00 mm

## COc1ccc(/C=C/C(=O)c2ccc(OC)c(CC=C(C)C)c2OCC(=O)O)cc1 [Specific Example 8, 2'-carboxymethoxy-4,4'-dimethoxy-3'-(3-methyl-2-butenyl)chalcone]
[2]; [6]
  Mucous Membrane Damage Coefficient: 62.4 mm
[2]; Table 6, 100 mg/kg i.p.
  Inhibition Ratio: 41.3%
[3]; [7]
  inhibition in vivo at 100 mg/kg: 78.5%
[3]; [8]
  Mucous Membrane Damage Coefficient: 15.63 mm

## CC(=O)Oc1c(CC=C(C)C)c(O)cc(O)c1C(=O)CCc1ccc(O)cc1 [Specific Example 24, 1-[2-acetoxy-4,6-hydroxy-3-(3-methyl-2-butenyl)phenyl]-3-(4-hydroxyphenyl)-1-propanone]
[3]; [10]
  inhibition in vivo at 100 mg/kg: 23%
[3]; [11]
  Mucous Membrane Damage Coefficient: 55.7 mm

## COc1cc(CCC(=O)c2c(OC)cc(OC)c(CCC(C)C)c2OCC(=O)O)cc(OC)c1O [Specific Example 7, 1-(2-carboxymethoxy-4,6-dimethoxy-3-isopentylphenyl)-3-(4-hydroxy-3,5-dimethoxyphenyl)-1-propanone]
[3]; [7]
  inhibition in vivo at 100 mg/kg: 32.5%
[3]; [8]
  Mucous Membrane Damage Coefficient: 49.00 mm

## COc1ccc(CCC(=O)c2c(OC)cc(OC)c(CCC(C)C)c2OCC(=O)O)cc1O [Specific Example 6, 1-(2-carboxymethoxy-4,6-dimethoxy-3-isopentylphenyl)-3-(3-hydroxy-4-methoxyphenyl)-1-propanone]
[3]; [7]
  inhibition in vivo at 100 mg/kg: 32.4%
[3]; [8]
  Mucous Membrane Damage Coefficient: 49.13 mm

## CC(C)CCc1c(O)cc(O)c(C(=O)CCc2ccc(O)cc2)c1OCC(=O)O [Specific Example 32, 1-(2-carboxymethoxy-4,6-dihydroxy-3-isopentylphenyl)-3-(4-hydroxyphenyl)-1-propanone]
[3]; [10]
  inhibition in vivo at 100 mg/kg: 61.3%
[3]; [11]
  Mucous Membrane Damage Coefficient: 28.0 mm

## COc1ccc(CCC(=O)c2c(OC)cc(OC)c(CC=C(C)C)c2OCC(=O)O)cc1 [Specific Example 12, 1-[2-carboxymethoxy-4,6-dimethoxy-3-(3-methyl-2-butenyl)phenyl]-3-(4-methoxyphenyl) -propanone]
[2]; [6]
  Mucous Membrane Damage Coefficient: 76.6 mm
[2]; Table 6, 100 mg/kg i.p.
  Inhibition Ratio: 27.8%
[3]; [7]
  inhibition in vivo at 100 mg/kg: 43.2%
[3]; [8]
  Mucous Membrane Damage Coefficient: 41.25 mm

## O=C(/C=C/c1ccc(O)cc1)c1ccc(O)cc1O [Specific Example 15, 2',4,4'-trihydroxychalcone]
[1]; [4]
  Mucous Membrane Damage Coefficient: 30.0 mm
[1]; Table 9, 30 mg/kg p.o.
  Inhibition Ratio: 64.4%
[1]; [5]
  Mucous Membrane Damage Coefficient: 49.5 mm
[1]; Table 10, 30 mg/kg i.p.
  Inhibition Ratio: 55.3%

## COc1ccc(CCC(=O)c2ccc(OC)c(CCC(C)C)c2OCC(=O)O)cc1 [Specific Example 3, 1-(carboxymethoxy-4-methoxy-3-isopentylphenyl)-3-(4-methoxyphenyl)-1-propanone]
[2]; Table 5, 100 mg/kg i.p., control 65.8
  Mucous Membrane Damage Coefficient: 61.8 mm
[2]; Table 5, 100 mg/kg i.p.
  Inhibition Ratio: 68.1%
[3]; Rattus norvegicus, ip, 1 h, Table 1, 100 mg/kg i.p., vs control, read-out: Inhibition Ratio
  inhibition in vivo at 100 mg/kg: 63.4%
[3]; [12]
  inhibition in vivo at 100 mg/kg: 93.2%
[3]; Table 1, 100 mg/kg i.p., control 102.6
  Mucous Membrane Damage Coefficient: 37.6 mm
[3]; [13]
  Mucous Membrane Damage Coefficient: 6.0 mm

## COc1cc(CCC(=O)c2c(OC)cc(OC)c(CCC(C)C)c2OCC(=O)O)ccc1O [Specific Example 5, 1-(2-carboxymethoxy-4,6-dimethoxy-3-isopentylphenyl)-3-(4-hydroxy-3-methoxyphenyl)-1-propanone]
[3]; [7]
  inhibition in vivo at 100 mg/kg: 27.9%
[3]; [8]
  Mucous Membrane Damage Coefficient: 52.38 mm

## O=C(CCc1ccc(O)cc1)c1c(O)cc(O)cc1O [Specific Example 23, 1-(2,4,6-trihydroxyphenyl)-3-(4-hydroxyphenyl)-1-propanone]
[1]; [9]
  Mucous Membrane Damage Coefficient: 67.9 mm
[1]; Table 8, 100 mg/kg p.o.
  Inhibition Ratio: 43.0%
[3]; [10]
  inhibition in vivo at 100 mg/kg: 36.7%
[3]; [11]
  Mucous Membrane Damage Coefficient: 45.8 mm

## COc1ccc(CCC(=O)c2c(OC)cc(OC)c(CCC(C)C)c2OCC(=O)O)cc1 [Specific Example 35, 1-(2-carboxymethoxy-4,6-dimethoxy-3-isopentylphenyl)-3-(4-methoxyphenyl)-1-propanone]
[2]; Table 7, 100 mg/kg i.p., control 133.8
  Mucous Membrane Damage Coefficient: 65.8 mm
[2]; Table 7, 100 mg/kg i.p.
  Inhibition Ratio: 50.8%
[3]; Rattus norvegicus, ip, 1 h, Table 1, 35 mg/kg i.p., vs control, read-out: Inhibition Ratio
  inhibition in vivo at 35 mg/kg: 67.2%
[3]; [12]
  inhibition in vivo at 100 mg/kg: 81.2%
[3]; Table 1, 35 mg/kg i.p., control 102.6
  Mucous Membrane Damage Coefficient: 33.7 mm
[3]; [13]
  Mucous Membrane Damage Coefficient: 16.5 mm

## COc1ccc(/C=C/C(=O)c2ccc(OC)c(CC=C(C)C)c2O)cc1 [Specific Example 16, 2'-hydroxy-4,4'-dimethoxy-3'-(3-methyl-2-butenyl)chalcone]
[3]; [10]
  inhibition in vivo at 100 mg/kg: 36.4%
[3]; [11]
  Mucous Membrane Damage Coefficient: 46.0 mm

— patent US5106871A, “Anti-ulcer agent comprising chalcone derivative as effective ingredient and novel chalcone derivative” (Tsumura & Co., priority 1986, dated 1992)
